In patent US9029384B2, “Phosphatidylinositol 3-kinase inhibitors” (Gilead Calistoga LLC, priority 2012, dated 2015):
Read-outs that look alike come from different tables or passages of the source.

Legend:
PI3Kδ = biological target: T1, PI3Kδ (Homo sapiens, UniProt O00329); test: Enzymatic activity of PI3K isoforms, TR-FRET assay (PIP3 formation); type: biochemical; conditions: read-out: IC50
T1 construct: made in house
Source text: Enzymatic Activity of PI3K Isoforms
The TR-FRET assay was used to monitor formation of the product 3,4,5-inositol triphosphate molecule (PIP3) as it competed with fluorescently labeled PIP3 for binding to the GRP-1 pleckstrin homology domain protein. An increase in […] product results in a decrease in TR-FRET signal as the labeled fluorophore is displaced from the GRP-1 protein binding site.
Class I PI3K isoforms were expressed and purified as heterodimeric recombinant proteins. All assay reagents and buffers for the TR-FRET assay were purchased from Millipore. […] After an assay reaction time of 30 minutes at 25° C., reactions were terminated with a final concentration of 10 mM EDTA, 10 nM labeled-PIP3, and 35 nM Europium labeled GRP-1 detector protein before reading TR-FRET on an Envision plate reader (Ex: 340 nm; Em: 615/665 nm; 100 μs delay and 500 μs read window).
Data are normalized based on a positive (1 uM wortmanin) and negative (DMSO) controls. The α, β, δ, and γ IC50 values were calculated from the fit of the dose-response curves to a four-parameter equation. IC50 are reported in units of nM.
IC50 values were obtained for all PI3K isoforms (α, β, δ, and γ), and Table 2 summarizes the IC50 data collected for PI3Kδ in this Example B1.

[1] = Hepatocyte stability, 0.01% final DMSO, 1 μM substrate (t1/2^b); type: in vitro ADME; conditions: human, hepatocytes, TA with 0.01% final DMSO
Method: Alternatively, assay reagents and/or conditions can be modified in determining the inhibitory activities to PI3K isomers. In additional studies, similar assay using TA and 0.01% final DMSO concentration were incubated with 1 million hepatocytes/mL at 1 μM substrate in duplicate. The incubation was carried out at 37° C. with 5% CO2 and saturating humidity.

basophils = test: Basophil activation in human whole blood (Flow2 CAST kit, CD63 positive cells); type: cell-based
Method: Effect on basophil activation was measured in human whole blood using the Flow2 CAST® kit (Buhlmann Laboratories AG, Baselstrasse, Switzerland) following the protocol provided by the manufacturer with minor modifications. Human whole blood was collected into K2-EDTA venipuncture tubes. Whole blood samples were treated with either DMSO (0.3% final) or a serial dilution of compounds in DMSO for 60 minutes at 37° C. Basophils were then activated either with anti-FcεRI mAb or with fMLP. To activate basophils using the anti-FcεRI mAb; 50 μl of whole blood was mixed with 110 μl of stimulation buffer (B-BAT-STB) and 20 μl of anti-FcεRI (B-BAT-STCON). To activate basophils with fMLP; 50 μl of whole blood was mixed with 80 μl of stimulation buffer (B-BAT-STB) and 50 μl of fMLP (B-CCR-FMLP). Stimulation buffer was used as a negative control. 20 μl of the staining reagent (combination of anti-human CD63-FITC and anti-human CCR3-PE mAbs) was then added to each tube. […] Subsequently, erythrocytes were lysed and fixed by the addition of 2 ml of lysing solution (B-BAT-LYR) for 10 min at room temperature. Cells were pelleted by centrifugation at 1200 rpm for 10 min at room temperature in a swing-out rotor. Supernatant was aspirated and cell pellet resuspended in 400 μl of wash buffer. Flow cytometric analysis of the basophil activation was performed on a FC500MPL flow cytometer (Beckman Coulter Inc., Fullerton, Calif.). CCR3-staining and side scatter were applied to gate at least 200 basophils that expressed a high density of CCR3. The percent CD63 positive cells within the gated basophil population were determined in different treatment groups and normalized to the vehicle control (0.3% DMSO) with anti-FcεRI mAb of fMLP stimulus as 100%. Final compound concentration was adjusted to correct for dilution effect of added reagents. The EC50 values were calculated from the analysis of the dose-response curves to a four-parameter equation. All EC50 values represent geometric mean values and are reported in units of nM.

[2] = PI3Kδ, TR-FRET, 2×Km ATP, 10 μM PIP2
[3] = 1 μM substrate, samples at 0, 1, 3, 6 hours, read-out: human hepatocyte t½^b
[4] = Homo sapiens, basophils activated with anti-FcεRI mAb or fMLP, geometric mean
[5] = basophils activated with anti-FcεRI mAb or fMLP, geometric mean

T1 sequence (O00329 whole entry, canonical isoform): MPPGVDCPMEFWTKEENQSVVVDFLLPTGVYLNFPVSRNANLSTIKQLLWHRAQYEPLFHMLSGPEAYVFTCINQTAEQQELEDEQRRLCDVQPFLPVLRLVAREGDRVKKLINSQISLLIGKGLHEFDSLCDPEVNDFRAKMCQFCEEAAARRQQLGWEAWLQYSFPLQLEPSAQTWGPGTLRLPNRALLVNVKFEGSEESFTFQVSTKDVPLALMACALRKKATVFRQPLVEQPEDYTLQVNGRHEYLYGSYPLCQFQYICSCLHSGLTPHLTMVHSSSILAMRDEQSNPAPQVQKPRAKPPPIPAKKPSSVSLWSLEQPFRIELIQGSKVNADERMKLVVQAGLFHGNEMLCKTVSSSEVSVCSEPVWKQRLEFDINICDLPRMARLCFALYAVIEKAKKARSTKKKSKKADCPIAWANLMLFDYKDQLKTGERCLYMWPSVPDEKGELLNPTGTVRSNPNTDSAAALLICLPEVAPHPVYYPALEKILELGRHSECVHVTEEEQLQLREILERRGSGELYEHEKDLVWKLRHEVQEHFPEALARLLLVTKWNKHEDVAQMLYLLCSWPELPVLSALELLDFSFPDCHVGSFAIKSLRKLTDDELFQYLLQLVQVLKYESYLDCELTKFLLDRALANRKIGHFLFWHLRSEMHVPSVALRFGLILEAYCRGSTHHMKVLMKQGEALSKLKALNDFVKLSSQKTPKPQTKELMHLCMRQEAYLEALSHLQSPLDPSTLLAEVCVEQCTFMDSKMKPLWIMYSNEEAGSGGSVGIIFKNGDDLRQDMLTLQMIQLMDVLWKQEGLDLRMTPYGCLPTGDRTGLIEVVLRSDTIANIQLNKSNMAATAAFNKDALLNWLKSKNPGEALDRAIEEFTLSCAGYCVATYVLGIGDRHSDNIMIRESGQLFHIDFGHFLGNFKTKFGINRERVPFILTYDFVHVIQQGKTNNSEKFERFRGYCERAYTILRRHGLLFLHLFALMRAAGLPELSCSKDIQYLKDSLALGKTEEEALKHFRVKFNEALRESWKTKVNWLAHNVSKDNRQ
T1 sequence (P27986 whole entry partner, canonical isoform): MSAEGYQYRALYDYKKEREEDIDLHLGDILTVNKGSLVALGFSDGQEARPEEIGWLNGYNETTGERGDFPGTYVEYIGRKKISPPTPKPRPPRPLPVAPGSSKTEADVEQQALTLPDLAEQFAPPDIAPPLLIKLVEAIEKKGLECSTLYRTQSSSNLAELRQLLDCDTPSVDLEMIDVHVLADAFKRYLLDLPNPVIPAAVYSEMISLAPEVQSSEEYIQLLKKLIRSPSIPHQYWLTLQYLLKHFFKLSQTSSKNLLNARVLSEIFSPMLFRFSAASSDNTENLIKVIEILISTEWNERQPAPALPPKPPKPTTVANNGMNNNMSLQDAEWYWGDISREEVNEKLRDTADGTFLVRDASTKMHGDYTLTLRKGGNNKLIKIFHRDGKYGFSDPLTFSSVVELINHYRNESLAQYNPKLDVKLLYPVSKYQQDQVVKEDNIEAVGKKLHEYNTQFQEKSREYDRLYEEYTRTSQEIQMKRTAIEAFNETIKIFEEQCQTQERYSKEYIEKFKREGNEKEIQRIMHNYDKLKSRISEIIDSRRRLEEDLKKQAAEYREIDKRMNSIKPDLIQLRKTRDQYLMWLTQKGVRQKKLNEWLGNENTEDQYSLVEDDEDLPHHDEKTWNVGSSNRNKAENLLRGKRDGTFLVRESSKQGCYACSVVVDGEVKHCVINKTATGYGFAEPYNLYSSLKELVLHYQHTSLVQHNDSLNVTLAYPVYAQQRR

Compound | IC50 (PI3Kδ; [2]) [nM] | EC50 (basophils; [4]) [nM] | EC50 (basophils; [5]) [nM] | further results
CC(Nc1nc(N)nc(N)c1C#N)c1nc2cccc(S(C)(=O)=O)c2c(=O)n1-c1cc(F)cc(C(F)F)c1 (single isomer, unassigned) [Compound 98a] | 10 to 50 | > 50 | – | half-life at 1 μM [1, 3]: 3 to 6 h
CCC(Nc1nc(N)nc(N)c1C#N)c1nc2ccc(F)cc2c(=O)n1-c1cccc(F)c1 (single isomer, unassigned) [Compound 178a] | 1 to 10 | 1 to 10 | – | half-life at 1 μM [1, 3]: > 10 h
CC(Nc1nc(N)nc(N)c1Cl)c1nc2c(F)ccc(Cl)c2c(=O)n1-c1ccccc1 (single isomer, unassigned) [Compound 127a] | 1 to 10 | 1 to 10 | – | half-life at 1 μM [1, 3]: 1 to 3 h
CC(Nc1nc(N)nc(N)c1C#N)c1nc2ccc(F)c(Cl)c2c(=O)n1-c1cc(F)cc(F)c1 (single isomer, unassigned) [Compound 140a] | 1 to 10 | 1 to 10 | – | half-life at 1 μM [1, 3]: 3 to 6 h
CCC(Nc1nc(N)nc(N)c1C#N)c1nc2c(F)ccc(F)c2c(=O)n1-c1cccc(C#N)c1 (single isomer, unassigned) [Compound 152a] | 10 to 50 | 1 to 10 | – | half-life at 1 μM [1, 3]: 3 to 6 h
C[C@H](Nc1nc(N)nc(N)c1C#N)c1nc2c(C#N)cc(F)cc2c(=O)n1-c1cccc(F)c1 [Compound 154a, (S)-2-(1-((2,6-diamino-5-cyanopyrimidin-4-yl)amino)ethyl)-6-fluoro-3-(3-fluorophenyl)-4-oxo-3,4-dihydroquinazoline-8-carbonitrile] | 1 to 10 | 1 to 10 | – | half-life at 1 μM [1, 3]: > 10 h
Cc1cccc2c(=O)n(-c3ccccc3)c(C(C)Nc3nc(N)nc(N)c3C#N)nc12 (single isomer, unassigned) [Compound 3a] | 1 to 10 | 10 to 50 | – | –
CC(Nc1nc(N)nc(N)c1C#N)c1nc2c(F)ccc(C#N)c2c(=O)n1-c1ccccc1 (single isomer, unassigned) [Compound 124a] | 1 to 10 | 1 to 10 | – | –
Cc1ccc(F)c2nc(C(C)Nc3nc(N)nc(N)c3C#N)n(-c3ccccc3)c(=O)c12 (single isomer, unassigned) [Compound 60a] | < 1 | < 1 | – | –
CC(Nc1nc(N)nc(N)c1C#N)c1nc2ccc(F)cc2c(=O)n1-c1ccccc1 (single isomer, unassigned) [Compound 9a] | 1 to 10 | 1 to 10 | – | –
Cc1c(F)cccc1-n1c(C(C)Nc2nc(N)nc(N)c2C#N)nc2cccc(Cl)c2c1=O (single isomer, unassigned) [Compound 199a-2] | 1 to 10 | – | > 50 | –
Cc1c(C(F)F)cccc1-n1c(C(C)Nc2nc(N)nc(N)c2C#N)nc2cccc(Cl)c2c1=O (single isomer, unassigned) [Compound 189a-2] | < 1 | – | 1 to 10 | –
CC(Nc1nc(N)nc(N)c1C#N)c1nc2ccc(F)cc2c(=O)n1-c1cccc(Cl)c1 (single isomer, unassigned) [Compound 14a] | 1 to 10 | 1 to 10 | – | –
CC(Nc1nc(N)nc(N)c1C#N)c1nc2ccc(F)c(Cl)c2c(=O)n1-c1cc(F)cc(C(F)F)c1 (single isomer, unassigned) [Compound 141a] | 10 to 50 | 10 to 50 | – | –
CC(Nc1nc(N)nc(N)c1C#N)c1nc2cccc(C#N)c2c(=O)n1-c1ccccc1 (single isomer, unassigned) [Compound 7a] | 1 to 10 | < 1 | – | –
Cc1c(F)ccc(-n2c(C(C)Nc3nc(N)nc(N)c3C#N)nc3cccc(Cl)c3c2=O)c1C (single isomer, unassigned) [Compound 203a-1] | 1 to 10 | – | > 50 | –
CC(Nc1nc(N)nc(N)c1C#N)c1nc2cccc(S(C)(=O)=O)c2c(=O)n1-c1ccccc1F (single isomer, unassigned) [Compound 142a-1] | 1 to 10 | 10 to 50 | – | –
CC(Nc1nc(N)nc(N)c1C#N)c1nc2cccc(S(C)(=O)=O)c2c(=O)n1-c1c(F)cccc1F (single isomer, unassigned) [Compound 146a] | 1 to 10 | > 50 | – | –
Cc1c(F)cccc1-n1c(C(C)Nc2nc(N)nc(N)c2C#N)nc2cccc(Cl)c2c1=O (single isomer, unassigned) [Compound 199a-1] | < 1 | – | < 1 | –
Cc1c(F)cc(F)cc1-n1c(C(C)Nc2nc(N)nc(N)c2C#N)nc2cccc(Cl)c2c1=O (single isomer, unassigned) [Compound 200a-1] | 10 to 50 | – | 10 to 50 | –
Cc1c(F)ccc(-n2c(C(C)Nc3nc(N)nc(N)c3C#N)nc3cccc(Cl)c3c2=O)c1C (single isomer, unassigned) [Compound 203a-2] | > 50 | – | 10 to 50 | –
C[C@H](Nc1ncnc(N)c1C#N)c1nc2cccc(F)c2c(=O)n1-c1cccc(F)c1 [Compound V, reference compound] | – | – | – | half-life at 1 μM ([1]; human hepatocytes, read-out: t1/2^b): < 1 h; EC50 (basophils; Homo sapiens, basophil activation): > 4 nM
CC(Nc1nc(N)nc(N)c1C#N)c1nc2cccc(Cl)c2c(=O)n1-c1cc(C(F)F)cc(C(F)F)c1 (single isomer, unassigned) [Compound 137a] | 1 to 10 | – | 10 to 50 | –

Further lines, with some results ahead:

IC50 (PI3Kδ; [2]) [nM] | EC50 (basophils; [4]) [nM] | EC50 (basophils; [5]) [nM] | Compound | further results
1 to 10 | 1 to 10 | – | CC(Nc1nc(N)nc(N)c1C#N)c1nc2cccc(Cl)c2c(=O)n1-c1cc(F)cc(OC(F)(F)F)c1 (single isomer, unassigned) [Compound 193a] | half-life at 1 μM [1, 3]: 1 to 3 h
1 to 10 | 1 to 10 | – | CCC(Nc1nc(N)nc(N)c1C#N)c1nc2c(F)ccc(F)c2c(=O)n1-c1cccc(F)c1 (single isomer, unassigned) [Compound 151a] | half-life at 1 μM [1, 3]: 3 to 6 h
< 1 | 1 to 10 | – | CC(Nc1nc(N)nc(N)c1C#N)c1nc2cccc(O)c2c(=O)n1-c1ccccc1 (single isomer, unassigned) [Compound 2a] | –
1 to 10 | – | 10 to 50 | CC(Nc1nc(N)nc(N)c1C#N)c1nc2cccc(S(C)(=O)=O)c2c(=O)n1-c1ccccc1F (single isomer, unassigned) [Compound 142a-2] | –
1 to 10 | 10 to 50 | – | CC(Nc1nc(N)nc(N)c1C#N)c1nc2cccc(S(C)(=O)=O)c2c(=O)n1-c1ccccc1 (single isomer, unassigned) [Compound 95a] | –
1 to 10 | – | < 1 | COc1cc(F)cc(-n2c(C(C)Nc3nc(N)nc(N)c3C#N)nc3cccc(Cl)c3c2=O)c1 (single isomer, unassigned) [Compound 205a] | –
< 1 | < 1 | – | CC(Nc1nc(N)nc(N)c1C#N)c1nc2cccc(Br)c2c(=O)n1-c1ccccc1 (single isomer, unassigned) [Compound 129a] | –
< 1 | – | < 1 | COc1cccc(-n2c(C(C)Nc3nc(N)nc(N)c3C#N)nc3cccc(Cl)c3c2=O)c1 (single isomer, unassigned) [Compound 206a] | –
1 to 10 | > 50 | – | CC(C)CC(Nc1nc(N)nc(N)c1C#N)c1nc2cccc(Cl)c2c(=O)n1-c1cccc(F)c1 (single isomer, unassigned) [Compound 168a] | –
– | – | < 1 | CC(Nc1nc(N)nc(N)c1C#N)c1cc2cccc(Cl)c2c(=O)n1-c1ccccc1 (single isomer, unassigned) [Compound 196a] | IC50 (PI3Kδ): < 1 nM
